Data reported in US20160158200A1, “Combinations of Hepatitis C Virus Inhibitors” (priority 2013, published 2016).

Test system: HCV genotype-1a variant with glutamine 30 changed to glutamate in the NS5A protein
Format: cell-based
Conditions: test compound titrated with BMS-790052 fixed at 200 nM; genotype 1a Q30E replicon
Procedure, shortened: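 Synergy was assessed by combining several fixed amounts of an NS5A-targeting compound with a titration of the second compound of interest.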

Row | SMILES | Fold-Synergistic 1a (Q30E)
1 | CC(C)(C)[C@H](NC(=O)C(=O)O)c1nc(-c2ccc(-c3ccc(-c4c[nH]c([C@@H](NC(=O)C(=O)O)C(C)(C)C)n4)cc3)cc2)c[nH]1 [Compound W-44] | >10 fold
2 | COC(=O)NC(C(=O)NC(c1ncc(-c2ccc(-c3ccc(-c4cnc(C5CCCN5C(=O)C(NC(=O)OC)C(C)C)[nH]4)cc3)cc2)[nH]1)C(C)(C)C)C(C)C (centres unmarked) [Compound B-194] | <10 fold
3 | CC(C)(C)C(NC(=O)C(O)C1CCCCC1)c1nc(-c2ccc(-c3ccc(-c4c[nH]c(C(NC(=O)C(O)C5CCCCC5)C(C)(C)C)n4)cc3)cc2)c[nH]1 [Compound L-74] | >100 fold
4 | CC(C)(C)[C@H](NC(=O)C1CC1(F)F)c1nc(-c2ccc(-c3ccc(-c4c[nH]c([C@@H](NC(=O)C5CC5(F)F)C(C)(C)C)n4)cc3)cc2)c[nH]1 (some centres unmarked) [Compound N-45a] | >100 fold
5 | CC(C)(C)OC(=O)NC1CCCCC1C(=O)N[C@H](c1nc(-c2ccc(-c3ccc(-c4c[nH]c([C@@H](NC(=O)C5CCCCC5NC(=O)OC(C)(C)C)C(C)(C)C)n4)cc3)cc2)c[nH]1)C(C)(C)C (single isomer, unassigned) [Compound W-23C] | >100 fold
6 | CC(C)(C)C(=O)N[C@H](c1ncc(-c2ccc(-c3ccc(-c4cnc([C@@H](NC(=O)C(C)(C)C)C5(C)CC5)[nH]4)cc3)cc2)[nH]1)C1(C)CC1 [Compound Y-35] | >100 fold
7 | COC1(C(=O)N[C@H](c2nc(-c3ccc(-c4ccc(-c5c[nH]c([C@@H](NC(=O)C6(OC)CC6)C(C)(C)C)n5)cc4)cc3)c[nH]2)C(C)(C)C)CC1 [Compound P-27] | >100 fold
8 | CC(O)(CC1CC1)C(=O)N[C@H](c1nc(-c2ccc(-c3ccc(-c4cnc([C@@H](NC(=O)C(C)(O)CC5CC5)C(C)(C)C)[nH]4)cc3)cc2)c[nH]1)C(C)(C)C (some centres unmarked) [Compound B-162] | >100 fold
9 | CC(C)[C@H](NC(=O)c1ccc(F)c(F)c1)c1ncc(-c2ccc(-c3ccc(-c4cnc([C@@H](NC(=O)c5ccc(F)c(F)c5)C(C)C)[nH]4)cc3)cc2)[nH]1 [Compound S-16] | >100 fold
10 | CC(C)[C@H](NC(=O)c1cc(Cl)ccc1Cl)c1ncc(-c2ccc(-c3ccc(-c4cnc([C@@H](NC(=O)c5cc(Cl)ccc5Cl)C(C)C)[nH]4)cc3)cc2)[nH]1 [Compound S-67] | >100 fold
11 | CC(C)[C@H](NC(=O)C1(CO)CC(F)(F)C1)c1nc(-c2ccc(-c3ccc(-c4c[nH]c([C@@H](NC(=O)C5(CO)CC(F)(F)C5)C(C)C)n4)cc3)cc2)c[nH]1 [Compound N-154] | >100 fold
12 | CC(C)[C@H](NC(=O)C1CCCCO1)c1ncc(-c2ccc(-c3ccc(-c4cnc([C@@H](NC(=O)C5CCCCO5)C(C)C)[nH]4)cc3)cc2)[nH]1 (single isomer, unassigned) [Compound Y-57] | >100 fold
13 | COC(c1ccccc1)C1(C(=O)N[C@H](c2nc(-c3ccc(-c4ccc(-c5c[nH]c([C@@H](NC(=O)C6(C(OC)c7ccccc7)CC6)C(C)(C)C)n5)cc4)cc3)c[nH]2)C(C)(C)C)CC1 (some centres unmarked) [Example N-137] | <10 fold
14 | CCN(CC)C(=O)NC(c1nc(-c2ccc(-c3ccc(-c4c[nH]c(C(NC(=O)N(CC)CC)C(C)C)n4)cc3)cc2)c[nH]1)C(C)C (centres unmarked) [Compound S-229] | >100 fold
15 | C[C@@H](C(=O)N[C@H](c1nc(-c2ccc(-c3ccc(-c4c[nH]c([C@@H](NC(=O)[C@H](C)c5ccccc5)C(C)(C)C)n4)cc3)cc2)c[nH]1)C(C)(C)C)c1ccccc1 [Compound N-61] | >100 fold
16 | CC(C)(C)[C@H](NC(=O)C(=O)c1cccs1)c1nc(-c2ccc(-c3ccc(-c4c[nH]c([C@@H](NC(=O)C(=O)c5cccs5)C(C)(C)C)n4)cc3)cc2)c[nH]1 [Compound W-19] | >100 fold
17 | CC(C)(C)[C@H](NC(=O)C1CCOC1)c1nc(-c2ccc(-c3ccc(-c4c[nH]c([C@@H](NC(=O)C5CCOC5)C(C)(C)C)n4)cc3)cc2)c[nH]1 (some centres unmarked) [Compound W-129] | >10 fold
